# Experimental data from paper PMC7582476, “Discovery of Novel Indoleamine 2,3-Dioxygenase 1 (IDO1) and Histone Deacetylase 1 (HDAC1) Dual Inhibitors Derived from the Natural Product Saprorthoquinone” (Molecules, 2020).
# Key:
# IDO1 = target: T1, IDO1 (Homo sapiens, UniProt P14902); experiment: IDO1 enzymatic assay; type: biochemical; details: for inhibition at 10 µM: Tables 2 and 3, read-out: IDO1 % Inhibition at 10 μM (converted); for IC50: mean ± SD of at least two independent assays
# T1 construct: No. 20160706
# T1 sequence (P14902 whole entry): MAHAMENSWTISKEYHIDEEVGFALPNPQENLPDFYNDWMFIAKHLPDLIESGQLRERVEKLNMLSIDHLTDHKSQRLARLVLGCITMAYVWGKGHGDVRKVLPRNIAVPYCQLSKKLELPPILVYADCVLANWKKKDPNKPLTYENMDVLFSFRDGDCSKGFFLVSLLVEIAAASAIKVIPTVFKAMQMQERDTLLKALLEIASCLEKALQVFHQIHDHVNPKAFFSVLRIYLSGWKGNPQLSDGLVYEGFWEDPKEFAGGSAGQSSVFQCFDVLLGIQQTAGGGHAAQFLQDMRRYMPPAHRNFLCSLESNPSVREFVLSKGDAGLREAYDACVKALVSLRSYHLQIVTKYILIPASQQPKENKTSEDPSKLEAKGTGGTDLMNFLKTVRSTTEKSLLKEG
# Method: (1) Prepare 100× compound of the final desired highest inhibitor concentration in reaction by 100% DMSO. For example, if compounds test at 10 μM, then prepare 1 mM of compound solution in this step. Then dilute compound with DMSO in 3-fold mode to obtain different concentrations. Mark as source plate. (2) Add 100 μL of 100% DMSO to column 1 and column 12 for background control and no compound high control respectively.
# Transfer 2 μL of each well from the 96-well source plate to a 96-well assay plate.
# • (3) Enzyme Reaction • Prepare 2× enzyme solution. Add IDO-1 in assay buffer. • Prepare 2× substrate solution. Add L-tryptophan, ascorbate, methylene blue, catalase in the assay buffer. • Assay plate already contains 2 μL of compound in 100% DMSO. • Transfer 2× enzyme solution to the assay plate. Add 100 μL of 2× enzyme solution to each well of the 96-well assay plate. • Incubate at room temperature for 10 min. • Transfer […] to each well of the 96-well assay plate. • Read OD321 kinetically by Spectramax (Molecular Devices, LLC, San Jose, CA, USA). • (4) Curve Fitting • Copy data from Spectramax program. Percent inhibition = (max-conversion)/(max − min) × 100. “max” stands for high control; “min” stands for low control. • Fit the data in XL-Fit to obtain IC50 values. Equation used is: Y = Bottom + (Top − Bottom)/(1 + 10^((LogIC50 − X) × Hill Slope)
# A549 cell line = experiment: Anti-proliferation assay in A549 cell line (CellTiter-Glo); type: cell-based; details: Homo sapiens; A549 cells, 48 h, CTG assay
# Method: Cell viability was measured by the CellTiter-Glo Luminescent (CTG) assay. A549 cells (ATCC, Cat. No.CCL-185) were seeded (2000 cells/well) in 96-well plates and cells were left to incubate at 37 °C for 24 h. After 24 h, prepare compounds with 5-fold dilution in DMSO to the compound plate (200-fold of the final concentration) and transfer 5 μL from the compound plate to 95 μL intermediate medium in the intermediate plate (10-fold of the final concentration). Then transfer 10 μL from the intermediate plate to the cell plates. The final DMSO is 0.5%. After continuing to incubate for 48 h, add 50 μL CTG reagent to each well and read luminescence according to CTG product manual.
# HDAC1 = target: T2, HDAC1 (Homo sapiens, UniProt Q13547); experiment: HDAC enzymatic assay; type: biochemical; details: mean ± SD of at least two independent assays
# T2 construct: purchased BPS Bioscience Inc. 50051
# T2 sequence (Q13547 whole entry): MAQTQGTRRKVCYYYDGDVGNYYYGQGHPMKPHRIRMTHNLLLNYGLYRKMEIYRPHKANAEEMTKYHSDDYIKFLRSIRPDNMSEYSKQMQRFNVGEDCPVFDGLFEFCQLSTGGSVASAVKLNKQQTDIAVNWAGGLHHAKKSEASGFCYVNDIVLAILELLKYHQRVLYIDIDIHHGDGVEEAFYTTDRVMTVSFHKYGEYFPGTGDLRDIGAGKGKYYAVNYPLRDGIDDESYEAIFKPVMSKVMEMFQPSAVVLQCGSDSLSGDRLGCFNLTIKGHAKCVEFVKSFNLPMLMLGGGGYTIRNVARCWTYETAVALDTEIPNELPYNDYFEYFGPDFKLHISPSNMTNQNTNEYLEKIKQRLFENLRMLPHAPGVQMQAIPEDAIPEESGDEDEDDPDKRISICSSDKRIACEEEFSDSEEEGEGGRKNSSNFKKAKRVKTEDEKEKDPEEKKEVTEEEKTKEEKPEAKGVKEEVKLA
# Method: • (1) Prepare 1× assay buffer (modified Tris Buffer). • (2) Compound serial dilution: Transfer compounds to assay plate by Echo in 100% DMSO. The final fraction of DMSO is 1%. • (3) Prepare enzyme solution in 1× assay buffer. • (4) Add trypsin and Ac-peptide substrate in 1× assay buffer to make the substrate solution. • (5) Transfer 15 μL of enzyme solution to assay plate or for low control transfer 15 μL of 1× assay buffer. • (6) Incubate at room temperature for 15 min. • (7) Add 10 μL of substrate solution to each well to start reaction. • (8) Incubate at room temperature for 60 min. • (9) Read the plate on Synergy MX with excitation at 355 nm and emission at 460 nm. • (10) Curve fitting: Fit the data in Excel to obtain inhibition values using Equation (1).
# Inh% = (Max − Signal)/(Max − Min) × 100(1)
# Fit the data in XL-Fit to obtain IC50 values using Equation (2); Y = Bottom + (Top − Bottom)/(1 + 10^((LogIC50 − X) × Hill Slope))(2)
# Y is %inhibition and X is compound concentration.
Structure (SMILES),inhibition at 10 µM (IDO1) [%],IC50 (IDO1) [µM],IC50 (A549 cell line) [µM],IC50 (HDAC1) [µM]
"Cc1ccc2c(c1CCC(=O)NCCCC(=O)Nc1ccccc1N)C(=O)C(=O)C(C(C)C)=C2 [Compound 33b, N-(2-Aminophenyl)-4-(3-(6-isopropyl-2-methyl-7,8-dioxo-7,8-dihydronaphthalen-1-yl)propanamido)-butanamide]",80,0.58 ± 0.11,19.1,34.9 ± 0.75
"Cc1ccc2c(c1CCC(=O)NCCCCC(=O)Nc1ccccc1N)C(=O)C(=O)C(C(C)C)=C2 [Compound 33c, N-(2-Aminophenyl)-5-(3-(6-isopropyl-2-methyl-7,8-dioxo-7,8-dihydronaphthalen-1-yl)propanamido)-pentanamide]",90,0.55 ± 0.02,> 20,39.5 ± 0.74
"Cc1ccc2c(c1CCC(=O)NCCCCCC(=O)Nc1ccccc1N)C(=O)C(=O)C(C(C)C)=C2 [Compound 33d, N-(2-Aminophenyl)-6-(3-(6-isopropyl-2-methyl-7,8-dioxo-7,8-dihydronaphthalen-1-yl)propanamido) hexanamide]",82,0.71 ± 0.03,> 20,0.46 ± 0.07
